We go through 11 molecules from US11414443B2, “Phospholipid derivatives and their use as medicaments” (USTAV MOLEKULARNI GENETIKY AV CR, V.V.I., priority 2017, dated 2022).

For series [1], the system named is C32 (human melanoma). The series can be described thus: Cytotoxicity in C32 tumor cell culture, ATP content. It counts as cell-based. The conditions noted are these: C32 cells, 16 hours of culture. Here is the method:
(§1) After 16 hours of culture, cell state was recorded.
(§2) The cytotoxicity of the products was quantified by determining the ATP content in the cells and using neutral red intake, and the IC50ATP and IC50NR [μM] were determined.

The test system of series [2] is TIB-75 (inducing murine hepatocarcinoma). The series is described as follows: Cytotoxicity in TIB-75 tumor cell culture, ATP content. It counts as cell-based. The conditions noted are these: TIB-75 cells, 16 hours of culture. On the procedure: as §1, §2
For series [3], the system named is LMH (chicken hepatocarcinoma). The series can be described thus: cells. It counts as cell-based. The conditions noted are these: 16 hours of culture, ATP content. Here is the method:
(§3) The cytotoxic activity of the products was tested in tumor cell cultures C32 (human melanoma), TIB-75 (inducing murine hepatocarcinoma), LMH (chicken hepatocarcinoma).
B) LMH cells were cultured in D-MEM medium containing 10% fetal serum and penicillin+streptomycin at 37° C. in air/5% CO2 atmosphere saturated with water vapor. Each well contained 5×10^4 cells and 0.5 ml medium. […] After 16 hours of culture, cell state was recorded.
as §2

Series [4] concerns tumor cell cultures C32, TIB-75, LMH. The series is described as follows: Cell state and growth in tumor cell cultures, controls and comparison products. To be noted: 0-240 μM, 16 hours of culture. Here is the method: As a control, the starting phospholipids were used at the same concentrations and conditions.
as §3
A) C32 cells were cultured in D-MEM medium containing 10% fetal serum and penicillin+streptomycin at 37° C. in air/5% CO2 atmosphere saturated with water vapor. Each well contained 5×10^4 cells and 0.5 ml medium. The tested products were added to the cells at concentrations of 0, 2.5, 5, 10, 20, 40, 80, 160 and 240 μM. After 16 hours of culture, cell state was recorded.
B) LMH cells were cultured in D-MEM medium containing 10% fetal serum and penicillin+streptomycin at 37° C. in air/5% CO2 atmosphere saturated with water vapor. Each well contained 5×10^4 cells and 0.5 ml medium. The tested phospholipids were added to the cells at concentrations of 0, 2.5, 5, 10, 20, 40, 80, 160 and 240 μM. After 16 hours of culture, cell state was recorded.
C) TIB-75 cells were cultured in D-MEM medium containing 10% fetal serum and penicillin+streptomycin at 37° C. in air/5% CO2 atmosphere saturated with water vapor. Each well contained 5×10^4 cells and 0.5 ml medium. The tested phospholipids were added to the cells at concentrations of 0, 2.5, 5, 10, 20, 40, 80, 160 and 240 μM. After 16 hours of culture, cell state was recorded.

The test system of series [5] is mammary gland 4T1 cancer cell line. The series can be described thus: Crystal violet cytotoxicity assay, E-DAPL/Dox combination. In kind it is cell-based. The conditions noted are these: for pIC50: Mus musculus. On the procedure: The potentiation of cytotoxic effect of E-DAPL/Dox combination was evaluated. The dose-effect relationship of individual drugs and E-DAPL/Dox mixture (ratio 202:1 was tested) was determined on mammary gland 4T1 cancer cell line by means of crystal violet assay (three measurements). The linearized Median-Effect Plot of dose response line provided both parameters (IC50; trend line m value) of Median-Effect Equation for individual and combination treatment [ref: Theoretical basis, experimental design, and computerized simulation of synergism and antagonism in drug combination studies; Ting-Chao Chou: Pharmacol Rev. 58(3), 2006, 621-81; Erratum in Pharmacol Rev. 2007; 59(1), 124]:
Potentiation of combination effect of E-DAPL/Dox/202:1 was expressed for the concentrations IC1 to IC60 by calculation of Combination index (CI) applying Combination Index Theorem for mutually nonexclusive drugs that obey higher order conditions [ref: Quantitative analysis of dose-effect relationships: the combined effects of multiple drugs or enzyme inhibitors; Ting-Chao Chou, Paul Talalay: Advances in Enzyme Regulation, Volume 22, 1984, Pages 27-55]: […]

pIC50: −log10 of the molar value. Like-named read-outs stand apart in the source and are kept apart here.

For the molecule `CCCCCCCCCCCCCCCCCC(=O)OCC(O)COP(=O)([O-])OCC[N+](C)(C)C` (stereo not drawn) [sn-1 stearoyl PC/E-DAPL], the pIC50 is 4.35 in series [1] (Homo sapiens), 4.35 in series [2] (Mus musculus) and 4.40 in series [3] (Gallus gallus).

phosphatidylcholine [PC]: the “cytotoxic activity: effect on phenotype and rate of cell growth” value (shortened to “cytotoxic activity: effect”) in series [4] is “did not affect the phenotype or reduce the rate of cell growth”.

Take “1-acyl-lysophosphatidylcholine [PC/E-DAPL]”: the figures for the pIC50 in series [1], in series [2] and in series [3] were 4.30, 4.35 and 4.46, respectively.

Regarding `CC(CC(=O)OCC(O)COP(=O)([O-])OCC[N+](C)(C)C)CC(C)(C)C` (stereo not drawn) [sn-1 trimethylhexanoyl PC/E-DAPL], the pIC50 in series [1] (Homo sapiens) was 3.89; in series [3] (Gallus gallus), 3.85.

In the case of `CCCCCC(=O)OCC(O)COP(=O)([O-])OCC[N+](C)(C)C` (stereo not drawn) [sn-1 hexanoyl PC/E-DAPL], the results for the pIC50 in series [1] (Homo sapiens), in series [2] (Mus musculus) and in series [3] (Gallus gallus) were 3.89, 3.87 and 3.87, respectively.

As for “1-acyl-lysophosphatidylethanolamine [PE/E-DAPL]”, the pIC50 in series [1] was 4.46; in series [2] it was 4.46; in series [3], 4.52.

“1-stearoyl-phosphatidylcholine [sn-1 stearoyl PC]”: in series [4], the “cytotoxic activity: effect” value is given as “did not affect the phenotype or reduce the rate of cell growth”.

`COc1cccc2c1C(=O)c1c(O)c3c(c(O)c1C2=O)C[C@@](O)(C(=O)CO)C[C@@H]3O[C@H]1C[C@H](N)[C@H](O)[C@H](C)O1` [Dox, doxorubicin]: the “concentration of Dox at IC25” value in series [5] (4T1 cell line, Dox alone or within E-DAPL/Dox 202:1) was 0.2306 µM. Further, the pIC50 in series [5] (4T1 cell line, Dox alone or within E-DAPL/Dox 202:1, read-out: concentration of Dox at IC50 level) was 6.03; in series [5] (4T1 cells, crystal violet assay, calculated from the Median-Effect Plot, read-out: IC50) it was 6.03.

In the case of `C[N+](C)(C)CCOP(=O)([O-])OCC(O)COC(=O)CCC1CCCC1` (stereo not drawn) [sn-1 cyclopentanepropionyl PC/E-DAPL], the figures for the pIC50 in series [1] (Homo sapiens) and in series [3] (Gallus gallus) were 3.82 and 3.89, respectively.

Take “2-acyl-lysophosphatidylcholine [2-acyl PC (15-20% 1-acyl PC), reference compound]”: the pIC50 was 3.70 in series [1] and 3.68 in series [2].

Regarding phosphatidylethanolamine [PE], the “cytotoxic activity: effect” value in series [4] is given as “did not affect the phenotype or reduce the rate of cell growth”.
